Reference: PMC8167103, “Regulation of Bcl-XL by non-canonical NF-κB in the context of CD40-induced drug resistance in CLL” (Cell Death and Differentiation, 2021)

Target: T1, NIK (Homo sapiens, UniProt Q99558)
T1 construct: gene MAP3K14
Experiment: Kinase-Glo luminescence kinase assay with recombinant human active NIK, myelin basic protein and […] ATP; IC50 converted to Ki
Format: biochemical

T1 sequence (Q99558 whole entry): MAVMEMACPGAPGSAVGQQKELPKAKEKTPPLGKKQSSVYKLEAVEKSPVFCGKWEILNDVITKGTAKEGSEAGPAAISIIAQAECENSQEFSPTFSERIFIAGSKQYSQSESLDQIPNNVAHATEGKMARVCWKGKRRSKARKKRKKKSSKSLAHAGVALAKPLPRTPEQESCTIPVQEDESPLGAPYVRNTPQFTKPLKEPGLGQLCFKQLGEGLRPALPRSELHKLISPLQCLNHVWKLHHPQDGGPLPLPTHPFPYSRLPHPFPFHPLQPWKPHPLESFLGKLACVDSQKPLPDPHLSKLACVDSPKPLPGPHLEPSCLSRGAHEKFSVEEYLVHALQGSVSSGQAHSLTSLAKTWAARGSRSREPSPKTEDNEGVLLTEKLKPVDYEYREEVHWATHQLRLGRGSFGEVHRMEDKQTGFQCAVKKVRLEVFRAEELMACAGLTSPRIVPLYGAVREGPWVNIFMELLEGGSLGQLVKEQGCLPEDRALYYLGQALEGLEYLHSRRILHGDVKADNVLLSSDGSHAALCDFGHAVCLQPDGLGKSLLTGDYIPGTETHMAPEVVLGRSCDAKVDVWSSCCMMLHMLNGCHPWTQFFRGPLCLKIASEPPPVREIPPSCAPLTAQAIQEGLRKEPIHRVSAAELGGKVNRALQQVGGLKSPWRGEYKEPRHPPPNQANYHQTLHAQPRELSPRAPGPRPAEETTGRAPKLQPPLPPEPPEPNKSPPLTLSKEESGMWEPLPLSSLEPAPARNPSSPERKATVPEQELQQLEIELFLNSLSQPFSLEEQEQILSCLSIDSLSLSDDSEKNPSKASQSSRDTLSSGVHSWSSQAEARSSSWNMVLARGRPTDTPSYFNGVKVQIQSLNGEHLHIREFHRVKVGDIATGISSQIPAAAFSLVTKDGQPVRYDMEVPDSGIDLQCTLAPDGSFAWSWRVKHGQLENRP

Ki: 0.025 µM
Structure (SMILES): CC(C)(O)C#Cc1ccc2c(c1)N(c1ccnc(N)n1)CC2 [CW15337, 4-(1-(2-aminopyrimidin-4-yl)indolin-6-yl)-2-methylbut-3-yn-2-ol]
